From PMC6705415 (Nature structural & molecular biology, 2019)
Residue numbers refer to the chain shown, from its start.

Tests used:
[1] = system: hENT1 Gly154 mutated to serine; conditions: Gly154 to serine mutation in hENT1 versus wild type; cited from earlier work
[2] = biological target: T1, hENT1 Met33Ile (hENT1cryst background) (Homo sapiens, UniProt Q99808, DEL243-274/L168F/M33I/N288K/P175A); experiment: Cold dilazep displacement of 3H-NBMPR; assay type: binding; conditions: Met33Ile relative to hENT1cryst; displacement of 100 nM 3H-NBMPR
T1 sequence (Q99808 with tags, fused parts or gaps M33I/L168F/P175A/DEL243-274/N288K): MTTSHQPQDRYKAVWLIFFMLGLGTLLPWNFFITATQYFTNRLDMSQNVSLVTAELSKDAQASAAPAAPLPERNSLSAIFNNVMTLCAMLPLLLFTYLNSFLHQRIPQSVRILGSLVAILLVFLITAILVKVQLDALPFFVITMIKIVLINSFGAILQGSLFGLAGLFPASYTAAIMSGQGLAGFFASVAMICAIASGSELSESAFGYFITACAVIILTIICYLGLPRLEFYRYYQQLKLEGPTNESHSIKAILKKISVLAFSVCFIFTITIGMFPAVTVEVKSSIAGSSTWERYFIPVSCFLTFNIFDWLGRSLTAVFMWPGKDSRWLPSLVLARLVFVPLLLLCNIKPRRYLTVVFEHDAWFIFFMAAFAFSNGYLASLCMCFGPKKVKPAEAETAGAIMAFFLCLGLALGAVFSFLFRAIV

[3] = biological target: T2, hENT1 Phe307Tyr (hENT1cryst background) (Homo sapiens, UniProt Q99808, DEL243-274/F307Y/L168F/N288K/P175A); experiment: Cold dilazep displacement of 3H-NBMPR; assay type: binding; conditions: Phe307Tyr relative to hENT1cryst; displacement of 100 nM 3H-NBMPR
T2 sequence (Q99808 with tags, fused parts or gaps L168F/P175A/DEL243-274/N288K/F307Y): T1 sequence (Q99808 with tags, fused parts or gaps M33I/L168F/P175A/DEL243-274/N288K) with I33M, F275Y

[4] = biological target: T3, hENT1 Phe307Ala (hENT1cryst background) (Homo sapiens, UniProt Q99808, DEL243-274/F307A/L168F/N288K/P175A); experiment: Cold dilazep displacement of 3H-NBMPR; assay type: binding; conditions: Phe307Ala relative to hENT1cryst; displacement of 100 nM 3H-NBMPR
T3 sequence (Q99808 with tags, fused parts or gaps L168F/P175A/DEL243-274/N288K/F307A): T1 sequence (Q99808 with tags, fused parts or gaps M33I/L168F/P175A/DEL243-274/N288K) with I33M, F275A

SMILES | decrease in NBMPR inhibitory potency [1] | increase in apparent Kd for dilazep [2] | decrease in apparent Kd for dilazep [3] | increase in apparent Kd for dilazep [4]
O=[N+]([O-])c1ccc(CSc2ncnc3c2ncn3[C@@H]2O[C@H](CO)[C@@H](O)[C@H]2O)cc1 [NBMPR, S-(4-Nitrobenzyl)-6-thioinosine] | ~ 2,500 fold | – | – | –
COc1cc(C(=O)OCCCN2CCCN(CCCOC(=O)c3cc(OC)c(OC)c(OC)c3)CC2)cc(OC)c1OC [dilazep] | – | ~ 3 fold | ~ 4 fold | ~ 90 fold
